Data reported in patent US20150290193A1, “NOVEL APPROACHES FOR INDIVIDUALIZED THERAPY OF PANCREATIC DUCTAL ADENOCARCINOMA” (HI-STEM gGmbH, priority 2012, published 2015).

Key:
stable PDAC cell lines = assay: Dose-escalation IC50 determination, cell viability by CellTiterBlue; type: cell-based, human; settings: 72 h; 3-fold serial dilutions in quadruplicates
Protocol: For calculation of the IC50, 3-fold serial dilutions of selected compounds were screened in quadruplicates, incubated for 72 h after which cell viability was assessed using CellTiterBlue as described. Raw data was normalized to positive and negative controls present on each individual plate IC50 values were calculated using GraphPad Prism (Graph Pad Software, La Jolla).
For calculation of the IC50 serial dilutions of selected compounds were screened in quadruplicates. In brief, 8,000 cells/well were seeded 24 h prior to addition of individual compounds in 96-well plates. After incubation for 72 h, cell viability was assessed using CellTiterBlue (Promega, Mannheim) as described. Raw data was normalized to positive and negative controls present on each individual plate. IC50 values were calculated using GraphPad Prism (Graph Pad Software, La Jolla).

[1] = system: PACO tumors (transplanted human PDAC tumors); assay: In vivo drug screen, subcutaneous PACO tumors in NSG mice, relative tumor volume; settings: tumors of all three subtypes; 125 mg/kg i.p. twice weekly
Protocol: Three groups of mice that each carried transplanted human tumors of one either the sensitive or the resistant subtypes were treated with Dasatinib, either alone or in combination with the chemotherapeutic agent Gemcitabine.
PACO tumors were established by injecting 5×10^5 cells subcutaneously into a cohort 20 NOD.Cg-Prkdcscid Il2rgtm1Wjl (NSG) mice. After the tumors reached a size of approx. 200 mm^3, mice were randomized into two groups of each 10 mice—Control, Gemcitabine, Dasatinib or combination of both. Gemcitabine was dissolved in 0.8% buffered saline and administered twice weekly at 125 mg/kg i.p. Dasatinib was prepared in citrate/citric acid buffer (pH 3) and administered daily via oral gavage at 25 mg/kg. Tumor volume was determined twice weekly via caliper measurements and calculated according the formula (length×height×width)×(π/6). Relative tumor growth was calculated for each individual tumor in relation to the volume calculated as of the start of the experiment.
Tumor size is expressed as relative volume normalized to the day of start of treatment.

Row | Compound | fold lower IC50 value of the classical subtype versus exocrine-like and quasi-mesenchymal PDAC cells (stable PDAC cell lines) | tumor growth, Gemcitabine alone [1]
1 | Cc1nc(Nc2ncc(C(=O)Nc3c(C)cccc3Cl)s2)cc(N2CCN(CCO)CC2)n1 [Dasatinib] | > 10,000 fold | –
2 | Nc1ccn([C@@H]2O[C@H](CO)[C@@H](O)C2(F)F)c(=O)n1 [Gemcitabine] | – | growth-inhibitory effect on tumors of all three subtypes, however did not lead to a complete stop in tumor growth
